# The source made the active and inactive calls.
# Legend:
# [1] = target: T1, Heat shock factor protein 1 (Mus musculus, UniProt P38532); experiment: HSF1 potentiators in luciferase reporter cells, confirmation, cell-based, NIH3T3, luminescence, dose retest (AID 435004); format: functional;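 also: stress induced by proteasome inhibitor MG132 added 30 min after compound; luciferase reporter driven by HSF1 response element in NIH3T3 cells; actives raise luminescence as potentiators of the MG132 stress response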
# T1 sequence (P38532 whole entry): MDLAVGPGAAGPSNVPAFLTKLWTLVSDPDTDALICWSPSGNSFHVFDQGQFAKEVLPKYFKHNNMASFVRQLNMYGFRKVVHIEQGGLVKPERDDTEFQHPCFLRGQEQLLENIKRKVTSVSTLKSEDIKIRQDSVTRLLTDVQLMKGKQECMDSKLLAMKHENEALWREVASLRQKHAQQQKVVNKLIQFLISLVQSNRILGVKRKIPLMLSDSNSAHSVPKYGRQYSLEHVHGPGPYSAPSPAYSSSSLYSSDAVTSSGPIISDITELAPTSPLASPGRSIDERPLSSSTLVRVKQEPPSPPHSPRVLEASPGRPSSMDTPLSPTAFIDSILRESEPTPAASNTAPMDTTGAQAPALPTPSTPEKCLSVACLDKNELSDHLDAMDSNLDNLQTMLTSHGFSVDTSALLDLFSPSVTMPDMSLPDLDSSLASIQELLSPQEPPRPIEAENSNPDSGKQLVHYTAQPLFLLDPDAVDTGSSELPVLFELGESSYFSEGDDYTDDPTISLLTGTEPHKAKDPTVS
# Escherichia coli = experiment: microbe, parasite or virus in culture
# Mu-type opioid receptor = Mu-type opioid receptor (Homo sapiens, UniProt P35372); experiment: (§1) Counterscreen for agonists of heterodimerization of the mu 1 (OPRM1) and delta 1 (OPRD1) opioid receptors: Luminescence-based cell-based high throughput dose response assay to identify agonists of OPRM1 homodimerization.; format: functional
# Sequence of Mu-type opioid receptor (P35372 whole entry): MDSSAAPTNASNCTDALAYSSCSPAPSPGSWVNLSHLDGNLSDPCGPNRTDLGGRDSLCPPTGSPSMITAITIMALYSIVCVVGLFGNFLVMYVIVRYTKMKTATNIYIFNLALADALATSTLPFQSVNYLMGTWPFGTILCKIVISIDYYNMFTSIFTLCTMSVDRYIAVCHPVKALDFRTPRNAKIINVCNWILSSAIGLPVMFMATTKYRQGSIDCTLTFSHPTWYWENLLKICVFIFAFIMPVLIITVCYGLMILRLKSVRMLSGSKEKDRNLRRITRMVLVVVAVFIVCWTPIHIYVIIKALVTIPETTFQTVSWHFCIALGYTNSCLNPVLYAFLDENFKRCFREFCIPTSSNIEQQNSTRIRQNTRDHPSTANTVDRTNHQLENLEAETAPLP
# [2] = target: Delta-type opioid receptor (Homo sapiens, UniProt P41143); experiment: as §1, with “of OPRD1” for “of OPRM1”, “homodimerization. [Related pubchem assays (depositor defined):AID504326, AID504355, AID504692, AID504904, AID504905]” for “homodimerization.”; format: functional
# Sequence of Delta-type opioid receptor (P41143 whole entry): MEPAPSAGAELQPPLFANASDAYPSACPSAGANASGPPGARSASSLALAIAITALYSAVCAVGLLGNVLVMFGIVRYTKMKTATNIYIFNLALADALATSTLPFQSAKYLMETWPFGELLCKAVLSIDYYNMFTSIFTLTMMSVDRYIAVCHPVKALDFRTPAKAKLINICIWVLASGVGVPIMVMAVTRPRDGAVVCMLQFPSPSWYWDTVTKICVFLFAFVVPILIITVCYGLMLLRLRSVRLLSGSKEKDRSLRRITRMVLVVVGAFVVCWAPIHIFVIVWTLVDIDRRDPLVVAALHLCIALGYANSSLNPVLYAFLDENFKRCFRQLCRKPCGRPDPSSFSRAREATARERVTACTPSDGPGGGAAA
# [3] = target: T2, Short transient receptor potential channel 4 (Mus musculus, UniProt Q9QUQ5); experiment: mouse TRPC4 channel inhibitors, dose response, cell-based, HEK293 TRPC4/mu-opioid, Fluo-4 calcium (AID 434942); format: functional;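 also: potency of inhibitors blocking the TRPC4 calcium response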
# T2 sequence (Q9QUQ5 whole entry): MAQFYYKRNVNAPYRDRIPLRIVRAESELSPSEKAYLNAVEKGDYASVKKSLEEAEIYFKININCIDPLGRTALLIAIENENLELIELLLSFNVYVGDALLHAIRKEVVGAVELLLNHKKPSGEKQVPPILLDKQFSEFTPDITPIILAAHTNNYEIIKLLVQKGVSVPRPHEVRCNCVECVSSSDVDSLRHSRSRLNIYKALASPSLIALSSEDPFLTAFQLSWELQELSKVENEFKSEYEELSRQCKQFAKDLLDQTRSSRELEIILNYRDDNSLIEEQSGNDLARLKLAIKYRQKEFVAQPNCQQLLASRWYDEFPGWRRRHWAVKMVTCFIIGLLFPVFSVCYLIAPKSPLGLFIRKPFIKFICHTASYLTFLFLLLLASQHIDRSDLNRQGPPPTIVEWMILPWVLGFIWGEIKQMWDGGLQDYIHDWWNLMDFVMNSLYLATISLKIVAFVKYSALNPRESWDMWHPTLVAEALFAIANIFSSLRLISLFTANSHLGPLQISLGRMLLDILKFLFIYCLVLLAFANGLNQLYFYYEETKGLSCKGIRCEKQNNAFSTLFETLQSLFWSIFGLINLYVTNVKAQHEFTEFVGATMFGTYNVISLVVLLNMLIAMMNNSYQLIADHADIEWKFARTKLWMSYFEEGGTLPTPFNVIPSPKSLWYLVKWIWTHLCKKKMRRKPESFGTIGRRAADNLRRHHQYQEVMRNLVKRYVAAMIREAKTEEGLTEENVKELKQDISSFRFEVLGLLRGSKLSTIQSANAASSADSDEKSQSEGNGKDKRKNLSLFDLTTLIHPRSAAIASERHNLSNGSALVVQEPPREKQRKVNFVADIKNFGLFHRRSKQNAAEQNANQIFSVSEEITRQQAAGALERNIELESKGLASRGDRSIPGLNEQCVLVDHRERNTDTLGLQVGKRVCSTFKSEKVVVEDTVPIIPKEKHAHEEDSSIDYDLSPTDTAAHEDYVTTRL
# [4] = target: 5-hydroxytryptamine receptor 5A (Homo sapiens, UniProt P47898); experiment: Counterscreen for agonists of OPRM1-OPRD1 heterodimerization: luminescence-based cell-based high throughput dose response assay to identify agonists of 5-hydroxytryptamine (serotonin) 5A receptor (HTR5A). [Related pubchem assays (depositor defined):AID504326, AID504355, AID504692, AID504904, AID504905]; format: functional
# Sequence of 5-hydroxytryptamine receptor 5A (P47898 whole entry): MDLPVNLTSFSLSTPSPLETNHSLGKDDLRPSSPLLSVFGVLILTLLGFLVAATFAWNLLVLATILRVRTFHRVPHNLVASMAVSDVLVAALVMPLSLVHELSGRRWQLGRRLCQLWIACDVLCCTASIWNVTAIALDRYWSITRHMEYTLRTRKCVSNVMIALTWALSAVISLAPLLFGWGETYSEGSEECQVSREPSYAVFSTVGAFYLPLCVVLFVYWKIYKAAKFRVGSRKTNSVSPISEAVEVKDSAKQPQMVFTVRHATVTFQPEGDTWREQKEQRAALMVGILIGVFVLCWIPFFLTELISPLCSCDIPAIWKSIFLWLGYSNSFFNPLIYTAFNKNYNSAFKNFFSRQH
# Vero = experiment: cells; format: functional; conditions: Chlorocebus sabaeus
# cells [5] = format: functional, cell-based
# cells [6] = format: functional, cell-based; remark: listed apart in the source
# INS1 = experiment: beta cell apoptosis inhibitors, cytokine rescue, dose response, luminescence, retest (AID 449756); format: functional, cell-based; conditions: Rattus norvegicus;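 also: cell death triggered by IL-1 beta plus TNF-alpha plus IFN-gamma mixture; protective hits raise ATP signal compared with cytokine alone wells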
# [7] = insulin promoter down-regulators in MIN6 cells, imaging, high-content screening, mouse beta cells (AID 1628); format: functional
# [8] = control 3'UTR Renilla luciferase suppression, dose response, counter-screen for Shn3 inhibitor project, cell-based, Clone20-Shn3RL, cherry-picked (AID 624133); format: functional
# [9] = Shn3 3'UTR reporter inhibitors, dose response, cell-based, Clone20 osteoblasts, firefly luciferase, cherry-picked (AID 624132); format: functional;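 also: firefly luciferase luminescence from reporter carrying the Shn3 3'UTR in osteoblasts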
# [10] = cytotoxicity in MIN6 insulinoma cells, dose response, cytotoxicity control, cell-based, mouse insulinoma (AID 2122); format: functional;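 also: confirmatory high-throughput counterscreen run to flag cytotoxic compounds; mouse MIN-6 beta cells carrying an insulin promoter eGFP reporter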
# [11] = HepG2 cell cytotoxicity, dose response, cytotoxicity control for Shn3 inhibitor project, CellTiter-Glo, cherry-picked (AID 624134); format: functional, cell-based
smiles,measurement,setting,value
COc1ccc(-c2nnc(Nc3ccc(CC(N)=O)cc3)c3ccccc23)cc1,EC50,[1],> 260 µM (inactive)
same,AC50,Escherichia coli,23.2 µM (active)
CN(C)C(CNC(=O)c1cccc(C(F)(F)F)c1)c1ccco1 (configuration not stated),EC50,Mu-type opioid receptor,> 92.4 µM (inactive)
same,EC50,[2],> 92.4 µM (inactive)
same,EC50,[3],376 nM (active)
same,EC50,[4],> 92.4 µM (inactive)
O=C1N(c2ccccc2C(F)(F)F)OC1(Cc1ccccc1)c1ccccc1 (configuration not stated),CC50,Vero,> 25 µM (active)
Cc1nc(SCc2ccc(C(=O)O)cc2)c2c(C)c(C)sc2n1,AC50,Escherichia coli,28.5 µM (active)
Cc1ccc(Nc2c(-c3ccccn3)nc3ccc(C)cn23)cc1,EC50,cells [5],79.5 µM (active)
same,EC50,cells [6],38.3 µM (active)
same,AC50,INS1,3 µM (active)
same,IC50,[7],1.95 µM (active)
same,AC50,[8],3.02 µM (active)
same,AC50,[9],1.74 µM (active)
same,IC50,[10],539 nM (active)
same,AC50,[11],5.21 µM (active)
COC(=O)c1c(NC(=O)CCN2CCOCC2)sc2c1CCCC2,AC50,Escherichia coli,85.8 µM (active)

# From ChEMBL document CHEMBL1201862, “PubChem BioAssay data set” (2004)
